Experiment: Inhibition of human cytomegalovirus protease by scintillation proximity assay
Set-up: species or system Human betaherpesvirus 5

An IC50 of 43 µM was found for `CCCCCc1cc(O)cc(O)c1C(=O)Oc1cc(O)c(C(=O)Oc2cc(O)c(C(=O)O)c(CCC)c2)c(CCC)c1` [CYTONIC ACID A] in this work.
An IC50 of 11 µM was found for `CCCCCc1cc(OC(=O)c2c(O)cc(OC(=O)c3c(O)cc(O)cc3CCC)cc2CCC)cc(O)c1C(=O)O` [CYTONIC ACID B] in this work.
